From US10278941B2, “Use of 2,5-dihydroxybenzene compounds and derivatives for the treatment of glioma” (AmDerma Pharmaceuticals, LLC, priority 2006, dated 2019)

Key:
rat glioma C6 cells = experiment: Rat glioma C6 cell proliferation, crystal violet staining; assay type: cell-based; conditions: 48 h
Description: The cell line used was rat glioma C6 cells. The cells were cultured as previously described (Cuevas P et al. Neurol Res, 2005). The cells were cultured as adherent cells in Dulbecco's modified Eagle's medium, supplemented with 7.5% (v/v) of fetal bovine serum, 10 μg/ml of streptomycin and 10 units/ml of penicillin. The tumor cells were seeded in 24-well plates at a density of 10,000 cells/well, and were incubated at 37° C. in a humidified chamber with 5% CO2. Once adhered, the cells were treated or not (controls) with 2,5-dihydroxybenzoate at 100, 200, 500 or 1000 μM and they were allowed to proliferate for 48 h. After this time the glioma cell proliferation was evaluated by means of staining the fixed cells with crystal violet. The number of cells is proportional to the amount of retained dye, which was spectrophotometrically determined by measuring the absorbance at 595 nm once the dye was extracted from the cells.
(§1) The cell line used was the C6 cell line and the experiment was carried out as described in Example 2. Once adhered, the cells were treated or not (controls) with increasing concentrations of 2,5-DHC (10, 25, 50 and 100 μM) and they were allowed to proliferate for 48 h. After this time the glioma cell proliferation was evaluated by means of staining the fixed cells with crystal violet. The number of cells is proportional to the amount of retained dye, which was determined spectrophotometrically by measuring absorbance at 595 nm once the dye was extracted from the cells.
as §1, with “examples 2 and 3.” for “Example 2.”, “(5A-2HBS) (500 μM) or (2A-5HBS) (500” for “increasing concentrations of 2,5-DHC (10, 25, 50 and 100”, “measuring the” for “measuring”

bFGF-induced fibrosis = experiment: bFGF-induced fibrosis, subcutaneous gelatin sponge implant; assay type: in vivo, Sprague-Dawley rats; conditions: sponge with bFGF plus compound 100 μM, 7 days
Description: Sterile gelatin sponges (1 mm^3; Curaspon Dental, Clinimed Holding, Zwanenburg, The Netherlands) were subcutaneously implanted in the dorsal region of the neck in Sprague-Dawley rats after the induction of intraperitoneal anesthesia. The animals were split into two groups: group A, the sponges were moistened with 200 μl of saline solution which contained 25 μg/ml of heparin and 10 μg/ml of basic FGF (bFGF); group B, the sponges were moistened in the same solution as in group A, but which solution further contained 2,5-dihydroxybenzoate (100 μM). After 7 days, the sponges and the surrounding subcutaneous fat were removed and histologically analyzed.

[1] = target: T1, Fibroblast Growth Factor-1 (FGF-1) (Homo sapiens, UniProt P05230); experiment: FGF-1-induced mitogenesis in quiescent Balb/c 3T3 fibroblast cultures; assay type: cell-based; conditions: quiescent Balb/c 3T3 fibroblasts
Description: The evaluated compounds were used in the form of potassium salt, except in the first case which used calcium salt. The experiments were carried out as described in Fernandez-Tornero C et al. J Biol Chem, 2003.

[2] = system: subcutaneous gliomas (rat glioma C6 cells); experiment: Progression of established subcutaneous C6 gliomas in rats; assay type: in vivo; conditions: for average size (volume) of the subcutaneous gliomas: vs carrier
Description: Rat C6 glioma cells were cultured as previously described (Cuevas P et al. Neurol Res, 2005). The C6 cells cultured to confluence in 75 cm^2 flasks were removed and implanted under the abdominal skin in anesthetized rats. The existence of a tumor in the implantation area was observed five days after the implantation of the tumor cells. Only the rats in which the existence of a tumor was observed were randomly assigned to be treated with daily intraperitoneal injections of 2,5-dihydroxybenzene sulfonate (DHBS; 100 mg/kg/day), 2,5-diacetoxybenzene sulfonate (DABS; 100 mg/kg/day) or the carrier (0.9% NaCl). After 10 days of treatment, the subcutaneous gliomas were removed and their volume was calculated according to the formula V=4/3π·(L/2)·(A/2)^2 (in mm^3) where L is the larger diameter and A is the smaller diameter, both expressed in mm.
Tumor cells elude the programmed cell death process or apoptosis that normal cells experience. Apoptosis induction in tumor cells is one way to confront the development of a tumor. To evaluate the effect of potassium 2,5-dihydroxybenzene sulfonate […] on tumor cell apoptosis, 6 μm thick sections of the subcutaneous gliomas described in example 4 were made. The sections were stained with hematoxylin and eosin and observed at a magnification of 313 times using immersion oil. In these conditions, cell apoptosis is shown by the existence of apoptotic bodies appearing as strongly chromogenic granules in the cell nucleus which is frequently fragmented.

[3] = target: T1, Fibroblast Growth Factor-1 (FGF-1); experiment: Crystal diffraction of FGF-1:compound complexes; assay type: binding; conditions: acetoxyl groups conserved when bound
Description: Based on the crystal diffraction of the FGF-1:2-acetoxy-5-hydroxybenzene sulfonic acid, FGF-1:5-acetoxy-2-hydroxybenzene sulfonic acid and FGF-1:2,5-diacetoxybenzene sulfonic acid complexes, the structures of the complexes were calculated and represented. FIGS. 13, 14 and 15, which show the surface of the dyed protein according to its electrostatic potential (light grey, negative charge; dark grey, positive charge; white, regions with no charge), show the manner in which 2-acetoxy-5-hydroxybenzene sulfonic acid, 5-acetoxy-2-hydroxybenzene sulfonic acid and 2,5-diacetoxybenzene sulfonic acid interact, respectively, with FGF-1.

[4] = system: human prostate cancer PC-3 cells; experiment: Subcutaneous PC-3 tumor progression in athymic mice; assay type: in vivo, athymic mice (Nu/Nu); conditions: 100 mg/kg daily i.p., 15 days
Description: 5×10^6 human prostate cancer PC-3 cells were subcutaneously injected in male athymic mice (Nu/Nu) of 6-8 weeks of age and weighing 20-26 g. Ten days after the implantation of the tumor cells, the mice were randomly split into two groups: one of them received a daily injection of potassium 2,5-diacetoxybenzene sulfonate (DABS) by intraperitoneal route at a dose of 100 mg/kg dissolved in saline (0.9% NaCl) whereas the other group received a daily injection of carrier (saline). The treatments were administered for 15 days. The volumes of the tumors induced by the implantation of PC-3 cells were measured through the skin on alternating days using a Vernier caliper. The volume was calculated using the formula V=(D×2d)/2, where D is the larger diameter in mm, d is the smaller diameter in mm and V is the volume in mm3. At the end of treatment, the mice were sacrificed and the tumors were weighed.

[5] = system: human lung cancer A549 cells; experiment: Human tumor cell proliferation, XTT viability method, A549; assay type: cell-based; conditions: 1-200 μM, 96 h
Description: (§2) The cell lines used were the human prostate cancer PC-3 cells and human lung cancer A549 cells. 2000 cells were seeded per well in 96-well plates and they were allowed to adhere overnight. Then the cells were treated or not (controls) with potassium 2,5-diacetoxybenzene sulfonate (DABS) (1-200 μM) and they were allowed to proliferate for 96 h. After this time, the PC-3 and A549 cell proliferation was evaluated by determining the final number of cells by means of the viability method of yellow tetrazolium salt (XTT). The data were expressed as a percentage of the control (without treatment).

[6] = system: human prostate cancer PC-3 cells; experiment: Human tumor cell proliferation, XTT viability method, PC-3; assay type: cell-based; conditions: 1-200 μM, 96 h
Description: as §2

T1 sequence (P05230 whole entry, species assumed): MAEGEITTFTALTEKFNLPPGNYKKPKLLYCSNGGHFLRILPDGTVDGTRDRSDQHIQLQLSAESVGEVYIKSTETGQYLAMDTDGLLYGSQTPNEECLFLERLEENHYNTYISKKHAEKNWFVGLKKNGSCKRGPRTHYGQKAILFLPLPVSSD

In the case of `O=C([O-])c1cc(O)ccc1O.[K+]` [2,5-dihydroxybenzoate, potassium 2,5-dihydroxybenzoate], the “rat glioma C6 cell proliferation (absorbance at 595 nm)” value (rat glioma C6 cells; 100, 200, 500 or 1000 μM) is reported as “inhibited rat glioma C6 cell proliferation in a concentration-dependent manner, an effect which was statistically significant at the concentrations of 500 and 1000 μM” and the “bFGF-induced fibrosis (fibroblasts in septa of connective tissue of adipose tissue)” value (bFGF-induced fibrosis) is reported as “reduces bFGF-induced fibrosis”.

With `O=C(O)C=Cc1cc(O)ccc1O` [2,5-DHC, 3-(2,5-dihydroxyphenyl)-2-propenoic acid] the C6 cell proliferation (rat glioma C6 cells; 50 μM) was “reduced the C6 cell proliferation to less than half” and the C6 cell proliferation (rat glioma C6 cells; 100 μM) was “proliferation was reduced to one tenth”.

With `O=S(=O)([O-])c1cc(O)ccc1O.[K+]` [DHBS, potassium 2,5-dihydroxybenzene sulfonate, reference compound] the “inhibition of mitogenesis induced by FGF-1” value [1] was “inhibition of the mitogenesis induced by fibroblast growth factor 1” and the “average size (volume) of the subcutaneous gliomas” value ([2]; i.p. 100 mg/kg/day, 10 days) was “less than that of the rats treated with carrier”.

For `CC(=O)Oc1ccc(O)cc1S(=O)(=O)[O-].[K+]` [2A-5HBS, potassium 2-acetoxy-5-hydroxybenzene sulfonate], the “structural interaction with FGF-1 (binding site in co-crystal)” value (“structural interaction” for short) [3] was “occupy a site that is very close to the one that has been described occupied by 2,5-dihydroxybenzene sulfonic acid”.

For `CC(=O)Oc1ccc(OC(C)=O)c(S(=O)(=O)[O-])c1.[K+]` [DABS, potassium 2,5-diacetoxybenzene sulfonate], the “tumor growth (tumor volume)” value [4] was “significantly reduced the human prostate cell tumor growth”, the “weight of the extracted tumor when treatment ended” value [4] was “significant reduction of the weight of the extracted tumor” and the “tumor cell apoptosis in subcutaneous glioma sections (hematoxylin and eosin)” value ([2]; 100 mg/kg/day i.p., 10 days) was “a large number of tumor cells in apoptosis can be observed”. The “probability of being tumor-free (χ2 test)” value ([2]; DABS group vs DHBS group, 100 mg/kg/day) was “greater probability of being tumor-free”, the “average size (volume) of the subcutaneous gliomas” value ([2]; i.p. 100 mg/kg/day, 10 days) was “this average volume was even less” and the “rats tumor-free when treatment ended” value ([2]; i.p. 100 mg/kg/day, 10 days, all rats had established tumors prior to treatment) was 4 rats. The “A549 cell proliferation (percentage of control)” value [5] was “caused a significant inhibition”, the “PC-3 cell proliferation (percentage of control)” value [6] was “caused a significant inhibition” and the “structural interaction” value [3] was “occupy a site that is very close to the one that has been described occupied by 2,5-dihydroxybenzene sulfonic acid”.

For `CC(=O)Oc1ccc(O)c(S(=O)(=O)[O-])c1.[K+]` [5A-2HBS, potassium 5-acetoxy-2-hydroxybenzene sulfonate], the “structural interaction” value [3] was “occupy a site that is very close to the one that has been described occupied by 2,5-dihydroxybenzene sulfonic acid”.
